Reference: patent publication US9127016B2, “Small molecule inhibitors of Dusp6 and uses therefor” (University of Pittsburgh—Of the Commonwealth System of …, priority 2009, dated 2015)

Columns and labels:
[1] = test system: FGF signaling (d2EGFP reporter); assay: BCI analog SAR: d2EGFP intensity in transgenic zebrafish embryos by densitometry; format: in vivo; conditions: 20 μM, 24 hpf embryos, 6 h; for Activity (BCI = 100): d2EGFP intensity in the dorsal region
Experimental: Transgenic zebrafish embryos (24 hpf) were treated with 20 μM solution of BCI analogs in 0.5% aq DMSO and fluorescence photomicrographs were taken after 6 h. The effectiveness of BCI analogs was evaluated by densitometry (ImageJ) of d2EGFP intensity in the dorsal region.

[2] = test system: FGF signaling (Tg(Dusp6:d2EGFP)pt6 reporter); assay: Transgenic zebrafish chemical screen, d2EGFP fluorescence; format: in vivo; conditions: 24 hpf embryos, 6-8 hours; analogs even at four-fold higher concentrations
Experimental: Tg(dusp6:d2EGFP)pt6 embryos were obtained by natural crossings and incubated at 28.5° C. until they reached 24 hpf. Five transgenic embryos were placed into each well from a 96-well plate in 200 μl of E3, and a 0.5% DMSO solution was added along with compound from each library at 10 μM. The NCI diversity set (NCl/NIH), the Natural Products library (MicroSource Discovery Systems Inc.) and Phosphatase targeted set (Chembridge) were screened in this study. (E)-2-Benzylidene-3-(cyclohexylamino)-2,3-dihydro-1H-inden-1-one (BCI; also known as NSC150117) was identified as a compound that enhanced fluorescence in treated transgenic embryos. Treated embryos were photographed under the same settings for exposure, gain and magnification for each picture using a MZFLIII (Leica) microscrope and fluorescent illumination for GFP using endow cube (Chroma Technology Corp., Rockingham, Vt.). Qimaging software and the Retiga Exi camera (Qimaging, Burnaby, BC Canada) were used to capture the images.
We previously described the generation of a transgenic zebrafish line, (Tg(Dusp6:d2EGFP)pt6) that expresses destabilized green fluorescent protein (d2EGFP) under the control of FGF signaling (Molina, G. A., et al. BMC Dev Biol 7, 62 (2007)). Using Tg(Dusp6:d2EGFP) embryos as a biosensor for FGF signaling, we screened over 5000 diverse compounds assembled from chemical libraries for small molecule modulators of this pathway. Five transgenic embryos at 24 hours post fertilization (hpf) were arrayed into each well of a 96-well plate containing test compounds at 10 μM. d2EGFP intensity in treated embryos was visually analyzed and compared to vehicle control (0.5% DMSO) after 6-8 hours. […] To confirm that BCI hyperactivated FGF signaling, we treated embryos prior to gastrulation (5 hpf), and we analyzed by whole mount in situ hybridization, the expression of ntl (zebrafish brachyury), a known FGF target gene (Latinkic, B. V. et al. Genes Dev 11, 3265-76 (1997)). […] We next determined the BCI structural features required to enhance FGF signaling. Two analogs, (E)-2-benzylidene-2,3-dihydro-1H-inden-1-one (BI) lacking the cyclohexylamino group, and 3-(cyclohexylamino)-2,3-dihydro-1H-inden-1-one (ICD) lacking the benzylidene group were synthesized).

Dusp6 = molecular target: T1, Dusp6 (Homo sapiens, UniProt Q16828); assay: Basal Dusp6 dephosphorylation of OMFP; format: biochemical; parameters: His; made in house
T1 sequence (Q16828 1-381): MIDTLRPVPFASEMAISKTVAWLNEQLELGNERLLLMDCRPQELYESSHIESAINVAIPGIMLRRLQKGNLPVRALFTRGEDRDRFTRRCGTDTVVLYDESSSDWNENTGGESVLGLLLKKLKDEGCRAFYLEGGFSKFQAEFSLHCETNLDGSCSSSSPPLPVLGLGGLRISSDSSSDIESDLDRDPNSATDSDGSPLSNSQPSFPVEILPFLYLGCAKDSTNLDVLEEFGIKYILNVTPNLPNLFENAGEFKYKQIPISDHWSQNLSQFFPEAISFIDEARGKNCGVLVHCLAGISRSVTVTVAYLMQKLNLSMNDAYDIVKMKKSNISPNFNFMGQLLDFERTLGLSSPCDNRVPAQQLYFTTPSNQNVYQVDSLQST
Experimental: For OMFP based ERK2 induced activation of Dusp6, recombinant His-tagged Dusp6 was expressed from a bacterial expression vector and 250 ng were incubated with the indicated concentrations of NSC95397 or BCI. OMFP was added at its apparent Km (100 μM) (Vogt, A. et al. J Biol Chem 280, 19078-86 (2005)). The final reaction volume was 15 μl. After 1 h at RT, OMF fluorescence was measured on an M5 multimode reader (Molecular Devices) at excitation/emission wavelengths of 485/525 nm. To assay activated Dusp6, 210 ng or 2.1 μg of recombinant ERK2 (Cell signaling) were added to Dusp6(210 ng)/BCI(100 μM) mixtures to measure activation at 1:1 and 1:10 ratio of substrate to enzyme. OMFP was immediately added and fluorescence (ex485/em525 nm) was read every 10 min for 130 min. Fold activation was calculated at 60 mins in each experiment.

PTP1B = molecular target: T2, PTP1B (Homo sapiens, UniProt P18031); assay: OMFP phosphatase assay, PTP1B; format: biochemical; conditions: 100 μM, positive control
T2 sequence (P18031 1-435): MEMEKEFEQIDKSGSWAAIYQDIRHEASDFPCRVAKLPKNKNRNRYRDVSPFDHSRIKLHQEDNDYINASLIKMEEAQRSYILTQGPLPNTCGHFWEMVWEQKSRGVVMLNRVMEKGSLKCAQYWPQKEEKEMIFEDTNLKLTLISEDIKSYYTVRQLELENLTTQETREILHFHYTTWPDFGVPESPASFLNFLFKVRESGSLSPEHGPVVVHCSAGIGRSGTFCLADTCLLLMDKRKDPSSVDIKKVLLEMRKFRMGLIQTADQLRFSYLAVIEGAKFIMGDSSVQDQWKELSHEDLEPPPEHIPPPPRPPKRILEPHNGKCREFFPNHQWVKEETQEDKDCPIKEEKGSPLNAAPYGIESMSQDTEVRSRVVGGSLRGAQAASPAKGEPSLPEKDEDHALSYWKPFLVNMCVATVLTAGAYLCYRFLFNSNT
Experimental: (§1) Enzyme activities in the presence or absence of BCI were measured using the artificial substrate […] at concentrations equal to the Km of each enzyme (Cdc25B, PTP1B & Dusp3/VHR) and at optimal pH for individual enzyme activity in a 96-well microtiter plate assay based on previously described methods by Lazo et al. (J Med Chem 44, 4042-9 (2001) and Lazo, J. S. et al. Bioorg Med Chem 14, 5643-50 (2006)). Briefly, the standard assay conditions contained 0.02 mg/ml OMFP in assay buffer (30 mM Tris-HCl (pH8.0), 75 mM NaCl, 1 mM EDTA, 0.33% BSA and 1 mM DTT). Fluorescence emission was measured after a sixty-minute incubation period at ambient temperature using a multiwell plate reader (SpectraMax m5, […]; excitation 485 nm, emission 525 nm). Sodium orthovanadate (100 μM) was used as a positive control for full phosphatase inhibition. IC50 concentrations were determined from three experiments using 10 concentrations of BCI ranging from 300 μM to 15.2 nM and GraphPad Prism 5.0 software.

Dusp3/VHR = Dusp3/VHR (Homo sapiens, UniProt P51452); assay: OMFP phosphatase assay, Dusp3/VHR; format: biochemical; conditions: 100 μM, positive control
Experimental: as §1

Cdc25B = molecular target: T3, Cdc25B (Homo sapiens, UniProt P30305); assay: OMFP phosphatase assay, Cdc25B; format: biochemical; conditions: 100 μM, positive control
T3 sequence (P30305 1-580): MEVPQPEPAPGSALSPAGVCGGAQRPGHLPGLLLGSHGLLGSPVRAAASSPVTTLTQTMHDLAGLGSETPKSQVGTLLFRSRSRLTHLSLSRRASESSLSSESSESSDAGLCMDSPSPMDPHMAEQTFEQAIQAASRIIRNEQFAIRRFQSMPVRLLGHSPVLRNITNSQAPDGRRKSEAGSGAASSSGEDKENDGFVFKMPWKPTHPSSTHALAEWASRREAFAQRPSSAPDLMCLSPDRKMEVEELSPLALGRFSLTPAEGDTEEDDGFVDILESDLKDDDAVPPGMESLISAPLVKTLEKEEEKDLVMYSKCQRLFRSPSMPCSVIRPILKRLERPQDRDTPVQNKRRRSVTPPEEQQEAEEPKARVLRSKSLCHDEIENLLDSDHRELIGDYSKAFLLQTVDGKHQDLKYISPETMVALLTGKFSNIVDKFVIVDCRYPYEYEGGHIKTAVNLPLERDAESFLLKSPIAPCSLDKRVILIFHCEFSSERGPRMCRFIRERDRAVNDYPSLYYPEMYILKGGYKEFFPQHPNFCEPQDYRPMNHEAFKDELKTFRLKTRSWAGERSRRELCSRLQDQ
Experimental: as §1

Sequence of Dusp3/VHR (P51452 whole entry): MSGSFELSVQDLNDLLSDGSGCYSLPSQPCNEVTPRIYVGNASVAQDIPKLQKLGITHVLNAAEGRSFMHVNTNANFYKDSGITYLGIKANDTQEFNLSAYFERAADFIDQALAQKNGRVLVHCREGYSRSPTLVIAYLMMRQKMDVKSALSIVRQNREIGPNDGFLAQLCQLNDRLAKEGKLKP

Structure (SMILES) | Activity (BCI = 100) [1] | other results
O=C1/C(=C/c2ccccc2)C(NC2CCCCC2)c2ccccc21 (single isomer, unassigned; (-)) [(−)-BCI] | 156 | activity of the levorotatory enantiomer relative to the dextrorotatory form [1]: twice
O[C@H]1/C(=C/c2ccccc2)[C@H](NC2CCCCC2)c2ccccc21 (stereo in doubt) [Compound 18, 2-Benzylidene-3-cyclohexylaminoindan-1-ol] | 26 | 
O=C1/C(=C/c2ccccc2)Cc2ccccc21 [Compound 1, (E)-2-benzylidene-2,3-dihydro-1H-inden-1-one] | 0 | d2EGFP fluorescence in treated transgenic embryos [2]: inactive; in vivo activity relative to BCI, in words [1]: inactive
O=C1/C(=C/c2ccccc2)C(NC2CCCC2)c2ccccc21 (stereo not shown) [Compound 4] | 123 | 
O=C1/C(=C/c2ccccc2)C(NC2CCCCCC2)c2ccccc21 (stereo not shown) [Compound 5, 2-Benzylidene-3-cycloheptylaminoindan-1-one] | 127 | 
O=C1/C(=C/c2ccccc2)C(Nc2ccccc2)c2ccccc21 (stereo not shown) [Compound 6] | 7 | 
O=C1/C(=C/c2ccccc2)C(N2CCCCC2)c2ccccc21 (stereo not shown) [Compound 7] | 114 | 
O=C1/C(=C/c2ccccc2)C(N2CCOCC2)c2ccccc21 (stereo not shown) [Compound 9] | 114 | 
O=C1/C(=C/c2ccccc2)C(N2CCSCC2)c2ccccc21 (stereo not shown) [Compound 10] | 27 | 
O=C1/C(=C/c2ccccc2)C(N2CCNCC2)c2ccccc21 (stereo not shown) [Compound 11] | 22 | 
CN1CCN(C2/C(=C\c3ccccc3)C(=O)c3ccccc32)CC1 (stereo not shown) [Compound 12] | 0 | 
CC(=O)N1CCN(C2/C(=C\c3ccccc3)C(=O)c3ccccc32)CC1 (stereo not shown) [Compound 13] | 47 | 
O=C1/C(=C/c2ccc(Cl)cc2)C(NC2CCCCC2)c2ccccc21 (stereo not shown) [Compound 14] | 52 | activity as compared to BCI [1]: 52%
N#Cc1ccc(/C=C2/C(=O)c3ccccc3C2NC2CCCCC2)cc1 (stereo not shown) [Compound 15] | 20 | activity as compared to BCI [1]: 20%
O=C1N[C@H]2[C@H](CS[C@H]2CCCCC(=O)N[C@H]2CC[C@H](NC3/C(=C\c4ccccc4)C(=O)c4ccccc43)CC2)N1 (stereo partly shown) [Compound 19] | No activity, | in vivo activity relative to BCI, in words [1]: no effect on FGF signaling
O=C1C(SCCO)=C(SCCO)C(=O)c2ccccc21 [NSC95397, 2,3-bis(2-hydroxyethylthio)naphthalene-1,4-dione, reference compound] |  | effect on basal Dusp6 activity toward OMFP (Dusp6): blocked basal Dusp6 activity toward OMFP
[Na+].[Na+].[Na+].[O]=[V]([O-])([O-])[O-] [Sodium orthovanadate, reference compound] |  | inhibition of PTP1B (PTP1B): 100%; inhibition of Dusp3/VHR (Dusp3/VHR): 100%; inhibition of Cdc25B (Cdc25B): 100%
